Results taken from patent USRE37556E1, “Superoxide radical inhibitor” (Otsuka Pharmaceutical Co., Ltd., priority 1990, dated 2002).
Counter-ions that a name gives are not always drawn.

Test system: human neutrophilic leukocytes
Test: Inhibition of superoxide radical (O2-) generation in FMLP-stimulated human neutrophilic leukocytes (ferricytochrome C method)
Assay type: cell-based
Settings: Homo sapiens, Leukocyte, Table 16; comparative test present compounds vs prior art compounds; NE = not effective
From the text: (1) Activity for inhibiting the generation of superoxide radical (O2^−) in human neutrophilic leukocytes
That is, a whole blood obtained from a healthy adult and treated by anticoagulation method was subjected to a dextranhypotonic treatment to obtain leukocyte cells. The leukocyte cells were then subjected to a density gradient ultracentrifugation by Ficoll-Paque to obtain a neutrophilic leukocyte fraction.
O2^− generation was examined by the ferricytochrome C method in accordance with the method of B. N. Cronstein et al. [Journal of Experimental Medicine, vol. […] Each test compound was dissolved in dimethyl sulfoxide (DMSO); the solution was added to neutrophilic leukocytes before the addition of FMLP; then, the neutrophilic leukocytes were pre-incubated at 37° C.

Going from `CCOc1cc(-c2nc(-c3cc(C(=O)O)ccc3O)cs2)ccc1OC` [compound 104, 4-(3-Carboxy-6-hydroxyphenyl)-2-(3-ethoxy-4-methoxy-phenyl)thiazole] to `CCOc1cc(-c2nc(-c3ccc(O)c(C(=O)O)c3)cs2)ccc1OC` [compound 92, 4-(3-Carboxy-4-hydroxyphenyl)-2-(3-ethoxy-4-methoxyphenyl)thiazole], the IC50 falls from 34 nM to 20 nM (1.7-fold).

Compared with `CCOc1ccc(-c2nc(-c3ccc(O)c(C(=O)O)c3)cs2)cc1OC` [compound 88, 4-(3-Carboxy-4-hydroxyphenyl)-2-(3-methoxy-4-ethoxyphenyl)thiazole], `COc1ccc(-c2nc(-c3ccc(O)c(C(=O)O)c3)cs2)cc1OC` [compound 105, 4-(3-Carboxy-4-hydroxyphenyl)-2-(3,4-dimethoxyphenyl)thiazole, reference compound] is 10-fold higher in IC50: 100 nM for the first, 1000 nM for the second.

In the case of `CCOc1ccc(-c2nc(-c3cc(C(=O)O)ccc3OC)cs2)cc1OCC` [compound 112, 4-(3-Carboxy-6-methoxyphenyl)-2-(3,4-diethoxyphenyl)thiazole, reference compound], the IC50 is reported as 8700 nM.

Same assay, conditions: Homo sapiens, Leukocyte, pH 7.4, Table 15; O2- generation, 3x10^-7 M FMLP, cytochalasin B, 37° C., pH 7.4

Compared with `CCOc1cc(-c2nc(-c3cc(C(=O)O)ccc3O)cs2)ccc1OC` [compound 104, 4-(3-Carboxy-6-hydroxyphenyl)-2-(3-ethoxy-4-methoxy-phenyl)thiazole], `CCOc1ccc(-c2nc(-c3ccc(O)c(C(=O)O)c3)cs2)cc1OC` [compound 88, 4-(3-Carboxy-4-hydroxyphenyl)-2-(3-methoxy-4-ethoxyphenyl)thiazole] is 2.9-fold higher in IC50: 34 nM for the first, 100 nM for the second. The first is the more potent here.

Going from `COc1ccc(C(=O)c2nc(-c3ccc4c(c3)CCC(=O)N4)cs2)cc1OC` [compound 58, 2-(3,4-Dimethoxybenzoyl)-4-(3,4-dihydrocarbostyril-6-yl)thiazole] to `CCCOc1cc(-c2nc(-c3ccc4c(c3)CCC(=O)N4)cs2)ccc1OC` [compound 68, 4-(3,4-Dihydrocarbostyril-6-yl)-2-(4-methoxy-3-propoxy-phenyl)thiazole], the IC50 falls from 1000 nM to 80 nM (12-fold). The second is the more potent here.

First: COc1ccc(-c2nc(-c3ccc4[nH]c(=O)c(=O)[nH]c4c3)cs2)cc1OC [compound 57, 2-(3,4-Dimethoxyphenyl)-4-(2,3-dioxo-1,2,3,4-tetrahydro-quinoxalin-6-yl)thiazole]
Second: COc1ccc(-c2nc(-c3ccc(OS(=O)(=O)O)cc3)cs2)cc1OC [compound 63, 4-(4-Hydroxysulfonyloxyphenyl)-2-(3,4-dimethoxyphenyl)thiazole]
The IC50 of the first is 10-fold higher: 300 nM for the first, 30 nM for the second.

Compared with `CCOc1ccc(-c2nc(-c3ccc(O)c(NC(C)=O)c3)cs2)cc1OCC` [compound 65, 4-(3-Acetylamino-4-hydroxyphenyl)-2-(3,4-diethoxyphenyl)thiazole], `CCOc1ccc(-c2nc(-c3ccc(O)c(C(=O)OC)c3)cs2)cc1OCC` [compound 80, 4-(4-Hydroxy-3-methoxycarbonylphenyl)-2-(3,4-diethoxyphenyl)thiazole] is 6-fold lower in IC50: 60 nM for the first, 10 nM for the second. The second is the more potent here.

Compared with `CCOc1ccc(-c2nc(-c3ccc(N)cc3)cs2)cc1OCC` [compound 72, 4-(4-Aminophenyl)-2-(3,4-diethoxyphenyl)thiazole hydrochloride], `CCOc1ccc(-c2nc(-c3ccc(Cl)cc3)cs2)cc1OCC` [compound 75, 4-(4-Chlorophenyl)-2-(3,4-diethoxyphenyl)thiazole] is 3-fold higher in IC50: 200 nM for the first, 600 nM for the second. The first is the more potent here.

`CCOc1ccc(-c2nc(-c3cnc(C)c(C(=O)O)c3)cs2)cc1OCC` [compound 141, 2-(3,4-Diethoxyphenyl)-4-(2-methyl-3-carboxy-5-pyridyl)thiazole] and `CCOc1ccc(-c2nc(-c3cc(C)c(O)c(C(=O)O)c3)cs2)cc1OCC` [compound 85, 4-(3-Carboxy-4-hydroxy-5-methylphenyl)-2-(3,4-diethoxyphenyl)thiazole] are within 1.5-fold of each other in IC50: 94 nM for the first, 80 nM for the second.

Going from `CCOC(=O)c1csc(-c2csc(-c3ccc(OCC)c(OCC)c3)n2)n1` [compound 131, 2-(3,4-Diethoxyphenyl)-4-(4-ethoxycarbonyl-2-thiazolyl)thiazole] to `CCOc1ccc(-c2nc(-c3cccc(C(=O)O)n3)cs2)cc1OCC` [compound 115, 4-(6-Carboxy-2-pyridyl)-2-(3,4-diethoxyphenyl)-thiazole], the IC50 falls from 190 nM to 80 nM (2.4-fold). The second is the more potent here.

Going from `CC=Cc1cc(-c2csc(-c3ccc(OCC)c(OCC)c3)n2)cc(C(=O)O)c1O` [compound 140, 2-(3,4-Diethoxyphenyl)-4-[3-carboxy-4-hydroxy-5-(1-propenyl)phenyl]thiazole] to `CCOc1ccc(-c2nc(-c3cc(CC)c(O)c(C(=O)O)c3)cs2)cc1OCC` [compound 126, 2-(3,4-Diethoxyphenyl)-4-(3-carboxy-4-hydroxy-5-ethylphenyl)thiazole], the IC50 rises from 4.7 nM to 14 nM (3-fold).

Compared with `C=CCc1cc(C(=O)O)cc(-c2csc(-c3ccc(OCC)c(OCC)c3)n2)c1O` [compound 103, 4-(3-Carboxy-5-allyl-6-hydroxyphenyl)-2-(3,4-diethoxy-phenyl)thiazole], `CCOc1ccc(-c2nc(-c3cc(C(=O)O)cc(N)c3O)cs2)cc1OCC` [compound 113, 4-(2-Hydroxy-3-amino-5-carboxyphenyl)-2-(3,4-diethoxy-phenyl)thiazole hydrochloride] is 3.8-fold lower in IC50: 94 nM for the first, 25 nM for the second. The second is the more potent here.

First: CCOc1ccc(-c2nc(-c3cc4c(c(C(=O)O)c3)OC(C)(C)C4)cs2)cc1OCC [compound 139, 2-(3,4-Diethoxyphenyl)-4-(2,2-dimethyl-7-carboxy-2,3-dihydrobenzofuran-5-yl)thiazole]
Second: CCOc1ccc(-c2nc(-c3ccc(N)c(C(=O)O)c3)cs2)cc1OCC [compound 96, 4-(3-Carboxy-4-aminophenyl)-2-(3,4-diethoxyphenyl)-thiazole]
The IC50 of the first is 4.3-fold higher: 100 nM for the first, 23 nM for the second. The second is the more potent here.

Going from `CC(=O)Oc1ccc(-c2csc(-c3cccnc3)n2)cc1OC(C)=O` [compound 76, 4-(3,4-Diacetyloxyphenyl)-2-(3-pyridyl)thiazole] to `COc1ccc(-c2nc(-c3ccccn3)cs2)cc1OC` [compound 60, 2-(3,4-Dimethoxyphenyl)-4-(2-pyridyl)thiazole hydrochloride], the IC50 falls from 600 nM to 50 nM (12-fold).

Compared with `CCOc1ccc(-c2nc(-c3cc(C(=O)OC)cc(N)c3O)cs2)cc1OCC` [compound 102, 4-(3-Methoxycarbonyl-5-amino-6-hydroxyphenyl)-2-(3,4-diethoxyphenyl)thiazole], `CCOc1ccc(-c2nc(-c3cc(N)c(O)c(C(=O)OC)c3)cs2)cc1OCC` [compound 89, 4-(3-Amino-4-hydroxy-5-methoxycarbonylphenyl)-2-(3,4-diethoxyphenyl)thiazole] is 9.9-fold lower in IC50: 69 nM for the first, 7 nM for the second.

Compared with `CCCCOC(=O)c1cc(-c2csc(-c3ccc(OCC)c(OCC)c3)n2)ccc1OCCCC` [compound 136, 2-(3,4-Diethoxyphenyl)-4-(3-n-butoxycarbonyl-4-n-butoxyphenyl)thiazole], `CCCCCCCCCOC(=O)c1cc(-c2csc(-c3ccc(OCC)c(OCC)c3)n2)ccc1O` [compound 120, 2-(3,4-Diethoxyphenyl)-4-(4-hydroxy-3-n-nonyloxy-carbonylphenyl)thiazole] is 3.8-fold higher in IC50: 130 nM for the first, 490 nM for the second. The first is the more potent here.

Compared with `CCOc1ccc(-c2nc(-c3ccc(C(=N)N)cc3)cs2)cc1OCC` [compound 69, 4-(4-Amidinophenyl)-2-(3,4-diethoxyphenyl)thiazole hydrochloride], `CCOc1ccc(-c2nc(-c3ccccc3)cs2)cc1OCC` [compound 116, 2-(3,4-Diethoxyphenyl)-4-phenylthiazole] is 3.7-fold higher in IC50: 100 nM for the first, 370 nM for the second.

Compared with `CCOc1ccc(-c2nc(-c3ccc(O)c(CO)c3)cs2)cc1OCC` [compound 133, 2-(3,4-Diethoxyphenyl)-4-(4-hydroxy-3-hydroxymethylphenyl)thiazole], `CCOc1ccc(-c2nc(-c3ccc(OCC)c(C(=O)O)c3)cs2)cc1OCC` [compound 134, 2-(3,4-Diethoxyphenyl)-4-(4-ethoxy-3-carboxyphenyl)thiazole] is 14-fold higher in IC50: 9.2 nM for the first, 130 nM for the second.

Compared with `CCOc1ccc(-c2nc(-c3cc(C(=O)O)c(O)cc3O)cs2)cc1OCC` [compound 100, 4-(3-Carboxy-4,6-dihydroxyphenyl)-2-(3,4-diethoxyphenyl)thiazole], `C=C(C)Cc1cc(-c2csc(-c3ccc(OCC)c(OCC)c3)n2)cc(C(=O)O)c1O` [compound 84, 4-{3-Carboxy-4-hydroxy-5-(2-methyl-2-propenyl)-phenyl}-2-(3,4-diethoxyphenyl)thiazole] is 2.4-fold lower in IC50: 48 nM for the first, 20 nM for the second.

Going from `CCOc1ccc(-c2nc(-c3ccc(C(=O)O)s3)cs2)cc1OCC` [compound 129, 2-(3,4-Diethoxyphenyl)-4-(2-carboxy-5-thienyl)-thiazole] to `CCOc1ccc(-c2nc(-c3ccc(C(=O)O)o3)cs2)cc1OCC` [compound 122, 2-(3,4-Diethoxyphenyl)-4-(2-carboxy-5-furyl)-thiazole], the IC50 falls from 82 nM to 19 nM (4.3-fold). The second is the more potent here.

First: CCOc1ccc(-c2nc(-c3ccc(O)c(C(=O)OC)c3)cs2)cc1OC [compound 86, 4-(3-Methoxycarbonyl-4-hydroxyphenyl)-2-(3-methoxy-4-ethoxyphenyl)thiazole]
Second: CCOc1ccc(-c2nc(-c3cc(CC(C)C)c(O)c(C(=O)O)c3)cs2)cc1OCC [compound 93, 4-(3-Carboxy-4-hydroxy-5-isobutylphenyl)-2-(3,4-diethoxyphenyl)thiazole]
The IC50 of the first is 2.8-fold higher: 33 nM for the first, 12 nM for the second. The second is the more potent here.

Going from `CCOc1ccc(-c2nc(C(O)c3ccc(OC)c(OC)c3)cs2)cc1OCC` (stereo not shown) [compound 73, 4-[1-Hydroxy-1-(3,4-dimethoxyphenyl)methyl]-2-(3,4-diethoxyphenyl)thiazole] to `CCOc1ccc(-c2nc(-c3cccc(C(=O)N(C)C)n3)cs2)cc1OCC` [compound 123, 2-(3,4-Diethoxyphenyl)-4-(2-dimethylaminocarbonyl-6-pyridyl)thiazole], the IC50 rises from 200 nM to 380 nM (1.9-fold). The first is the more potent here.

Molecule `COc1ccc(-c2nc(-c3c(O)cc(O)cc3O)cs2)cc1OC` [compound 70, 4-(2,4,6-Trihydroxyphenyl)-2-(3,4-dimethoxyphenyl) thiazole] has an IC50 of 200 nM.

Same assay, conditions: Table 15; O2- generation, 3x10^-7 M FMLP, cytochalasin B, 37° C., pH 7.4

Compared with `CCOc1ccc(-c2nc(-c3ccc(OC)c(C(=O)O)c3)cs2)cc1OCC` [compound 125], `CCOc1ccc(-c2nc(-c3cccc(C(=O)N4CCN(C)CC4)n3)cs2)cc1OCC` [compound 128] is 3.1-fold higher in IC50: 190 nM for the first, 580 nM for the second. The first is the more potent here.
